Results taken from patent US9096591B2, “Tetracyclic compounds” (Medivation Technologies, Inc., priority 2007, dated 2015).
Values joined by “and” are separate entries in the source; they are usually repeats but may differ in a detail not shown here. Equal values may be shown once. Read-outs that look alike come from different tables or passages of the source.

Legend:
[1] = biological target: T1, human recombinant dopamine D2L receptor (Homo sapiens, UniProt P14416); assay: Dopamine D2L radioligand binding ([3H]Spiperone); conditions: percent inhibition of specific binding
T1 construct: expressed in transfected cells; host or cells: CHO cells
T1 sequence (P14416 whole entry): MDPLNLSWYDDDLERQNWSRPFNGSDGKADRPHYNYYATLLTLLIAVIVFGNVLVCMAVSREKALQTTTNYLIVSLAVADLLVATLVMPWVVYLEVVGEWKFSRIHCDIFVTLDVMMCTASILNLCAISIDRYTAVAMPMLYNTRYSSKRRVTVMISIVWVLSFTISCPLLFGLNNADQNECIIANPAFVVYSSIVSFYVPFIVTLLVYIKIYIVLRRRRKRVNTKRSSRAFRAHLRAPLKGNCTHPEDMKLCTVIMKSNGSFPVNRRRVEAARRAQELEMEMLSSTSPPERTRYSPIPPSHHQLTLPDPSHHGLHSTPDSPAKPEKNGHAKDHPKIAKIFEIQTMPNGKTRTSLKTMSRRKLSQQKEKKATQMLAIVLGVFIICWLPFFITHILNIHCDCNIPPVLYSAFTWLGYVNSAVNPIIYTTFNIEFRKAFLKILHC
Experimental: Non-specific binding was estimated in the presence of 10 μM Haloperidol. Receptor proteins were filtered and washed, the filters were then counted to determine [^3H]Spiperone specifically bound. […] Biochemical assay results are presented as the percent inhibition of specific binding in Table 6.

mice = assay: recognition test of new location of a known object (spatial memory); assay type: in vivo
[2] = system: synaptosomes of cortex of rat brain; assay: Glutamate-induced 45Ca2+ uptake into synaptosomes; assay type: biochemical, Wistar rats
Experimental: Synaptosomes were obtained from cerebral cortex of newborn (9-10 days) Wistar rats using standard Hajos method. The brain was homogenized with 10 volumes of cooled 0.32 M sucrose at 900 rpm. The homogenate was centrifuged at 1500 g for 10 min. and the resulted supernatant was centrifuged at 10000 g for 20 min. The radioactive label was accumulated by suspension of the synaptosomal P2-fraction in the incubation buffer A having the following composition: 132 mM NaCl, 5 mM KCl, 5 mM HEPES, 10 mM glucose, pH 7.4 (protein concentration of approximately 1.5-2 mg/ml). The mixture was further incubated for 5 min with 200 μM glutamate at 37° C. and then ^45Ca^2+ uptake was stopped by filtration through GF/B filters (Whatman, England) followed by three washes with cold buffer B (145 mM KCl, 10 mM Tris, 5.4 mM Trilon B, pH 7.4). The radioactivity probes were analyzed by fluid scintillation beta-analyzer (TriCarb, Perkin Elmer). All tests were performed in three parallel trials in 2-3 independent experiments. The amount of ^45Ca^2+ uptake was estimated by calculating the difference of radioactive label during the stimulation with glutamate and without the stimulation with agonist.
Specific ^45Ca^2+ uptake was estimated using the following equation: K(43/21)=[(Ca4−Ca3)/(Ca2−Ca1)]100%, where
Ca1—^45Ca^2+ uptake for the Control (without glutamate and the compound tested),
[…] glutamate-induced ^45Ca^2+ uptake (glutamate only),
Ca3—^45Ca^2+ uptake in the presence of the compound tested (without glutamate),
Ca4—^45Ca^2+ uptake in the presence of glutamate and the testing compound.
Statistical analysis of the results was performed using Student's t-test.

[3] = biological target: T2, human recombinant histamine H1 receptor (Homo sapiens, UniProt P35367); assay: Histamine H1 radioligand binding ([3H]Pyrilamine)
T2 construct: expressed in transfected cells; host or cells: CHO cells
T2 sequence (P35367 whole entry): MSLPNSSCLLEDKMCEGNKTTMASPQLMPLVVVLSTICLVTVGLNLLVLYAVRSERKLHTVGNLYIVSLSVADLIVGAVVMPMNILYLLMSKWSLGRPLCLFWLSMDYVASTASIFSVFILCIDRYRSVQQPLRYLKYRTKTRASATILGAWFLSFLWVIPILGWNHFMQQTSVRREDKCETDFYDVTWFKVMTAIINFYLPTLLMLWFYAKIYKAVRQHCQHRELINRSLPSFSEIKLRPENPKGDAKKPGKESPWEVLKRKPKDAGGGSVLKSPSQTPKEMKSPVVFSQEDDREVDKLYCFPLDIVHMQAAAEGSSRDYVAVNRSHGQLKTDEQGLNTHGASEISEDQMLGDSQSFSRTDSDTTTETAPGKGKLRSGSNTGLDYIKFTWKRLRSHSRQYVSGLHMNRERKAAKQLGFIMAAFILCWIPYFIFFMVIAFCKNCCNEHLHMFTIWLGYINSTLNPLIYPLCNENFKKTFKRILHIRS
Experimental: To evaluate in radioligand binding assays the activity of compounds of the invention, human recombinant histamine H1 receptor expressed in Chinese hamster ovary (CHO) cells (De Backer M D et al. Biochem. Biophys. Res Comm. 197(3):1601, 1993) in a modified Tris-HCl buffer (50 mM Tris-HCl, pH 7.4, 2 mM MgCl2, 100 mM NaCl, 250 mM Sucrose) were used. […] Non-specific binding was estimated in the presence of 1 μM pyrilamine. Receptor proteins were filtered and washed, the filters were then counted to determine [^3H]pyrilamine specifically bound. […] Biochemical assay results are presented as the percent inhibition of specific binding in Table 5.
To evaluate in radioligand binding assays the activity of compounds of the invention, human recombinant histamine H1 receptor expressed in Chinese hamster ovary (CHO) cells (De Backer, M. D. et al., Biochem. Biophys. Res. Comm. 197(3):1601, 1993) in a modified Tris-HCl buffer (50 mM Tris-HCl, pH 7.4, 2 mM MgCl2, 100 mM NaCl, 250 mM Sucrose) was used. […] Non-specific binding was estimated in the presence of 1 μM pyrilamine. Receptor proteins were filtered and washed, the filters were then counted to determine [^3H]Pyrilamine specifically bound. Compounds were screened at 1 μM, using 1% DMSO as vehicle. Biochemical assay results are presented as the percent inhibition of specific binding in Table 6.

[4] = biological target: T3, human recombinant histamine H2 receptor (Homo sapiens, UniProt P25021); assay: Histamine H2 radioligand binding ([125I]Aminopotentidine)
T3 construct: expressed in transfected cells; host or cells: CHO-K1 cells
T3 sequence (P25021 whole entry): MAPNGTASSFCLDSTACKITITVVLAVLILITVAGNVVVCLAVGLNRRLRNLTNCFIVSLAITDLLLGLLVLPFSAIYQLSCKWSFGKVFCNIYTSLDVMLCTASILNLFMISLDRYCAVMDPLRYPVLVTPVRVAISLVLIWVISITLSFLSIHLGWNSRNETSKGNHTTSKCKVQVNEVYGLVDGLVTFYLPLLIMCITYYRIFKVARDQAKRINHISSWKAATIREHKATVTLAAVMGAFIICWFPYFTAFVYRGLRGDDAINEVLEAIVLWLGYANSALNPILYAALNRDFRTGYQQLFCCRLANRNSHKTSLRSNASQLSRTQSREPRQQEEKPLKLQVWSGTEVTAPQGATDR
Experimental: Non-specific binding was estimated in the presence of 3 μM Tiotidine. […] Biochemical assay results are presented as the percent inhibition of specific binding in Table 5.
Non-specific binding was estimated in the presence of 3 μM Tiotidine. […] Compounds were screened at 1 μM, using 1% DMSO as vehicle. Biochemical assay results are presented as the percent inhibition of specific binding in Table 6.

[5] = 1 μM compound, […] [3H]Pyrilamine, read-out: Histamine Binding H1, percent inhibition of specific binding
[6] = 1 μM compound, 0.1 nM [125I]Aminopotentidine, read-out: Histamine Binding H2, percent inhibition of specific binding
[7] = percent inhibition of specific binding, screened at 1 μM, read-out: Inhibition of ligand binding, Hist. H1
[8] = percent inhibition of specific binding, screened at 1 μM, read-out: Inhibition of ligand binding, Hist. H2

CN1CCc2c(c3cc(Cl)ccc3n2C[C@@](C)(O)c2ccc(F)cc2)C1 [Compound 110]
Inhibition of ligand binding, Dop. D2L [1]: 35%

COc1ccc2c(c1)c1c(n2CCc2noc(-c3ccccc3)n2)CCN(C)C1 [Compound C4-5]
Influence on memory in the test recognition new localization of known object (mice; Dose of Compound 0.05 mg/kg): − | Influence on memory in the test recognition new localization of known object (mice; Dose of Compound 0.1 mg/kg): − | Influence on memory in the test recognition new localization of known object (mice; Dose of Compound 0.5 mg/kg): + | Influence on memory in the test recognition new localization of known object (mice; Dose of Compound 1.0 mg/kg): + | activity on memory: times weaker than dimebon (mice; comparison of effective doses): approximately 10 times | effect of the dose on exploration time / memory (in words) (mice; mice, dose 0.05 mg/kg): not effective | effect of the dose on exploration time / memory (in words) (mice; mice, dose 0.1 mg/kg): not effective | time exploring the object in a new location, % of the total time (mice; mice, dose 0.5 mg/kg): 56.2±7.6% | time exploring the object in the known position, % of the total time (mice; mice, dose 0.5 mg/kg): 43.8±7.6% | time exploring the object in a new location, % of the total time (mice; mice, dose 1 mg/kg): 60.6±8.4% | time exploring the object in the known position, % of the total time (mice; mice, dose 1 mg/kg): 39.4±8.4% | overall effect on memory (in words) (mice; mice, doses 0.05-1 mg/kg): stimulated memory | concentration at which glutamate-induced 45Ca2+ uptake into synaptosomes was inhibited [2]: 1 to 25 µM | inhibition of glutamate-induced 45Ca2+ uptake into synaptosomes ([2]; 10 μM (maximal inhibition)): 40% | glutamate-induced 45Ca2+ uptake into synaptosomes of rat cortex, % Ca of control (control-100%) ([2]; C 0.1 μM): 136.4% and 136.4 ± 11.8% | glutamate-induced 45Ca2+ uptake into synaptosomes of rat cortex, % Ca of control (control-100%) ([2]; C 0.5 μM): 124.6 ± 13.7% | glutamate-induced 45Ca2+ uptake into synaptosomes of rat cortex, % Ca of control (control-100%) ([2]; C 1.0 μM): 99.8 ± 0.1% | glutamate-induced 45Ca2+ uptake into synaptosomes of rat cortex, % Ca of control (control-100%) ([2]; C 5.0 μM): 84.2 ± 0.7% | glutamate-induced 45Ca2+ uptake into synaptosomes of rat cortex, % Ca of control (control-100%) ([2]; C 10 μM): 59.9 ± 0.2% | glutamate-induced 45Ca2+ uptake into synaptosomes of rat cortex, % Ca of control (control-100%) ([2]; C 25 μM): 98.6 ± 9.4% | glutamate-induced 45Ca2+ uptake into synaptosomes of rat cortex, % Ca of control (control-100%) ([2]; C 50 μM): 111.7 ± 11.2% | glutamate-induced 45Ca2+ uptake into synaptosomes of rat cortex, % Ca of control (control-100%) ([2]; C 100 μM): 148.4% and 148.4 ± 7.3%

CN1Cc2c(n(CCc3noc(-c4ccccc4)n3)c3ccc(Cl)cc23)CC12CC2 [Compound 223]
inhibition at 1 µM [3, 5]: 100% | inhibition at 1 µM [4, 6]: 94%

Cc1ccc2c(c1)c1c(n2CCc2ccccc2)CCN(C2CC2)C1 [Compound 35, 2-cyclopropyl-2,3,4,5-tetrahydro-8-methyl-5-phenethyl-1H-pyrido[4,3-b]indole]
inhibition at 1 µM [3, 5]: 99% | inhibition at 1 µM [4, 6]: 54%

CN1CCc2c(c3cc(Cl)ccc3n2CCc2n[nH]c(=S)n2C)C1(C)C [Compound 220]
Histamine Binding H1, percent inhibition of specific binding ([3]; 1 μM compound, […] [3H]Pyrilamine): 3% | Histamine Binding H2, percent inhibition of specific binding ([4]; 1 μM compound, 0.1 nM [125I]Aminopotentidine): 22%

CN1Cc2c(n(CCc3noc(-c4ccc(Cl)cc4)n3)c3ccc(Cl)cc23)CC12CC2 [Compound 242]
inhibition at 1 µM [3, 5]: 94% | inhibition at 1 µM [4, 6]: 87%

CCN1CCc2c(c3cc(C)ccc3n2CCc2ccc(C)cc2)C1 [Compound 26]
inhibition at 0.03 µM ([3]; 0.03 μM compound, […] [3H]Pyrilamine, read-out: Histamine Binding H1, percent inhibition of specific binding): 67% | inhibition at 0.1 µM ([3]; 0.1 μM compound, […] [3H]Pyrilamine, read-out: Histamine Binding H1, percent inhibition of specific binding): 81% | inhibition at 1 µM [3, 5]: 96% | inhibition at 1 µM [3, 7]: 96% | inhibition at 0.3 µM ([4]; 0.3 μM compound, 0.1 nM [125I]Aminopotentidine, read-out: Histamine Binding H2, percent inhibition of specific binding): 34% | inhibition at 1 µM [4, 6]: 73% | inhibition at 1 µM [4, 8]: 73%

Cc1ccc(C(O)Cn2c3c(c4ccccc42)CN(C)CC3)cc1 (stereo not shown) [Compound 7]
inhibition at 1 µM [3, 7]: 47% | inhibition at 1 µM [4, 8]: 58%
